Results as given in ChEMBL document CHEMBL3885881, “DrugMatrix”.

Organism: Rattus norvegicus
Assay: DrugMatrix - Regimen: Daily Repeat
Assay type: toxicity, organism-based, Sprague-Dawley
Set-up: regimen Daily Repeat, gender Male, age 6-8 weeks
Conditions: in vivo, po, route oral GAVAGE, vehicle 100 % WATER; for ABSOLUTE BASOPHIL / ABSOLUTE EOSINOPHIL / ABSOLUTE LYMPHOCYTE / ABSOLUTE MONOCYTE / ABSOLUTE SEGMENTED NEUTROPHIL / BASOPHIL / EOSINOPHIL / ERYTHROCYTE COUNT / HEMATOCRIT / HEMOGLOBIN / LEUKOCYTE COUNT / LYMPHOCYTE / MEAN CORPUSCULAR HEMOGLOBIN / MEAN CORPUSCULAR HEMOGLOBIN CONCENTRATION / MEAN CORPUSCULAR VOLUME / MONOCYTE / NEUTROPHIL / NUCLEATED RED BLOOD CELLS / PLATELET COUNT: tissue Blood; for ALANINE AMINOTRANSFERASE / ALBUMIN / ALKALINE PHOSPHATASE / ASPARTATE AMINOTRANSFERASE / BLOOD UREA NITROGEN / CARBON DIOXIDE / CHLORIDE / CHOLESTEROL / CREATINE PHOSPHOKINASE / CREATININE / GLUCOSE / LACTATE DEHYDROGENASE / LIPASE / PHOSPHORUS / POTASSIUM / SODIUM / TOTAL BILIRUBIN / TOTAL PROTEIN / URIC ACID: tissue Plasma
[1] = 0 mg/kg, 72 h, dose level Control, time 3 day
[2] = 0 mg/kg, 120 h, dose level Control, time 5 day
[3] = 25 mg/kg, 72 h, dose level Low, time 3 day

For `c1ccc([C@H]2CN3CCSC3=N2)cc1` [LEVAMISOLE], which “ABSOLUTE BASOPHIL” value [1] is on record?
Its value is 0 CELLS/uL.

And the “ABSOLUTE EOSINOPHIL” value [1]?
The value was 20.17 CELLS/uL.

What about the “ABSOLUTE LYMPHOCYTE” value [1] of the same compound?
Its value is 12371.67 CELLS/uL.

What about the “ABSOLUTE MONOCYTE” value [1] of the same compound?
Its value is 166 CELLS/uL.

And the “ABSOLUTE SEGMENTED NEUTROPHIL” value [1]?
The value was 1292.17 CELLS/uL.

And the BASOPHIL [1]?
Its BASOPHIL is 0%.

And the EOSINOPHIL [1]?
Its EOSINOPHIL is 0.17%.

And the “ERYTHROCYTE COUNT” value [1]?
Its value is 5.46 x10E6/uL.

And the HEMATOCRIT [1]?
The HEMATOCRIT was 34.38%.

And the HEMOGLOBIN [1]?
Its HEMOGLOBIN is 13.32 G/DL.

And the “LEUKOCYTE COUNT” value [1]?
Its value is 13.85 x10E3/uL.

And the LYMPHOCYTE [1]?
The LYMPHOCYTE was 88.5%.

And the “MEAN CORPUSCULAR HEMOGLOBIN” value [1]?
Its value is 24.42 pg.

What about the “MEAN CORPUSCULAR HEMOGLOBIN CONCENTRATION” value [1] of the same compound?
The value was 38.7 G/DL.

What about the “MEAN CORPUSCULAR VOLUME” value [1] of the same compound?
The value was 63.07 fL.

And the MONOCYTE [1]?
Its MONOCYTE is 1.17%.

What about the NEUTROPHIL [1] of the same compound?
The NEUTROPHIL was 10.17%.

What about the “NUCLEATED RED BLOOD CELLS” value [1] of the same compound?
Its value is 0.17 /100WBC.

What about the “PLATELET COUNT” value [1] of the same compound?
The value was 1193.5 x10E3/uL.

And the “ALANINE AMINOTRANSFERASE” value [1]?
The value was 54.5 u/L.

And the ALBUMIN [1]?
Its ALBUMIN is 4.02 G/DL.

What about the “ALKALINE PHOSPHATASE” value [1] of the same compound?
Its value is 346.5 u/L.

And the “ASPARTATE AMINOTRANSFERASE” value [1]?
Its value is 103.17 u/L.

And the “BLOOD UREA NITROGEN” value [1]?
Its value is 16.5 mg/dL.

What about the “CARBON DIOXIDE” value [1] of the same compound?
Its value is 29.83 mmol/L.

What about the CHLORIDE [1] of the same compound?
The CHLORIDE was 99.5 MEQ/L.

And the CHOLESTEROL [1]?
Its CHOLESTEROL is 72.5 mg/dL.

What about the “CREATINE PHOSPHOKINASE” value [1] of the same compound?
The value was 532.5 u/L.

And the CREATININE [1]?
The CREATININE was 0.18 mg/dL.

And the GLUCOSE [1]?
Its GLUCOSE is 168.5 mg/dL.

What about the “LACTATE DEHYDROGENASE” value [1] of the same compound?
The value was 536.5 u/L.

And the LIPASE [1]?
The LIPASE was 11.17 u/L.

What about the PHOSPHORUS [1] of the same compound?
The PHOSPHORUS was 11.48 mg/dL.

And the POTASSIUM [1]?
Its POTASSIUM is 5.95 MEQ/L.

What about the SODIUM [1] of the same compound?
The SODIUM was 140.5 MEQ/L.

What about the “TOTAL BILIRUBIN” value [1] of the same compound?
Its value is 0.18 mg/dL.

What about the “TOTAL PROTEIN” value [1] of the same compound?
The value was 5.77 G/DL.

What about the “URIC ACID” value [1] of the same compound?
Its value is 1.42 mg/dL.

And the “ABSOLUTE BASOPHIL” value [2]?
The value was 0 CELLS/uL.

And the “ABSOLUTE EOSINOPHIL” value [2]?
The value was 22.83 CELLS/uL.

What about the “ABSOLUTE LYMPHOCYTE” value [2] of the same compound?
The value was 12202.83 CELLS/uL.

What about the “ABSOLUTE MONOCYTE” value [2] of the same compound?
Its value is 158 CELLS/uL.

What about the “ABSOLUTE SEGMENTED NEUTROPHIL” value [2] of the same compound?
The value was 1283 CELLS/uL.

What about the BASOPHIL [2] of the same compound?
Its BASOPHIL is 0%.

What about the EOSINOPHIL [2] of the same compound?
The EOSINOPHIL was 0.17%.

And the “ERYTHROCYTE COUNT” value [2]?
Its value is 5.88 x10E6/uL.

And the HEMATOCRIT [2]?
Its HEMATOCRIT is 36.62%.

And the HEMOGLOBIN [2]?
Its HEMOGLOBIN is 14.07 G/DL.

And the “LEUKOCYTE COUNT” value [2]?
Its value is 13.67 x10E3/uL.

And the LYMPHOCYTE [2]?
The LYMPHOCYTE was 89.5%.

What about the “MEAN CORPUSCULAR HEMOGLOBIN” value [2] of the same compound?
The value was 23.95 pg.

What about the “MEAN CORPUSCULAR HEMOGLOBIN CONCENTRATION” value [2] of the same compound?
Its value is 38.43 G/DL.

And the “MEAN CORPUSCULAR VOLUME” value [2]?
Its value is 62.28 fL.

What about the MONOCYTE [2] of the same compound?
The MONOCYTE was 1.17%.

What about the NEUTROPHIL [2] of the same compound?
The NEUTROPHIL was 9.17%.

And the “NUCLEATED RED BLOOD CELLS” value [2]?
Its value is 0.17 /100WBC.

And the “PLATELET COUNT” value [2]?
The value was 1198 x10E3/uL.

What about the “ALANINE AMINOTRANSFERASE” value [2] of the same compound?
The value was 51 u/L.

And the ALBUMIN [2]?
The ALBUMIN was 4.3 G/DL.

What about the “ALKALINE PHOSPHATASE” value [2] of the same compound?
The value was 343 u/L.

And the “ASPARTATE AMINOTRANSFERASE” value [2]?
The value was 89.83 u/L.

What about the “BLOOD UREA NITROGEN” value [2] of the same compound?
Its value is 17.67 mg/dL.

What about the “CARBON DIOXIDE” value [2] of the same compound?
The value was 27.17 mmol/L.

And the CHLORIDE [2]?
The CHLORIDE was 98.33 MEQ/L.

And the CHOLESTEROL [2]?
The CHOLESTEROL was 82.5 mg/dL.

And the “CREATINE PHOSPHOKINASE” value [2]?
Its value is 533.33 u/L.

What about the CREATININE [2] of the same compound?
Its CREATININE is 0.18 mg/dL.

What about the GLUCOSE [2] of the same compound?
The GLUCOSE was 152.67 mg/dL.

And the “LACTATE DEHYDROGENASE” value [2]?
The value was 220.33 u/L.

And the LIPASE [2]?
Its LIPASE is 11.5 u/L.

What about the PHOSPHORUS [2] of the same compound?
Its PHOSPHORUS is 11.25 mg/dL.

And the POTASSIUM [2]?
Its POTASSIUM is 6.29 MEQ/L.

And the SODIUM [2]?
The SODIUM was 140.53 MEQ/L.

And the “TOTAL BILIRUBIN” value [2]?
The value was 0.22 mg/dL.

What about the “TOTAL PROTEIN” value [2] of the same compound?
Its value is 6.12 G/DL.

What about the “URIC ACID” value [2] of the same compound?
The value was 1.42 mg/dL.

And the “ABSOLUTE BASOPHIL” value [3]?
Its value is 0 CELLS/uL.

What about the “ABSOLUTE EOSINOPHIL” value [3] of the same compound?
The value was 0 CELLS/uL.

And the “ABSOLUTE LYMPHOCYTE” value [3]?
The value was 9283.33 CELLS/uL.

And the “ABSOLUTE MONOCYTE” value [3]?
Its value is 29.33 CELLS/uL.

And the “ABSOLUTE SEGMENTED NEUTROPHIL” value [3]?
Its value is 1254 CELLS/uL.

And the BASOPHIL [3]?
The BASOPHIL was 0%.

What about the EOSINOPHIL [3] of the same compound?
The EOSINOPHIL was 0%.

What about the “ERYTHROCYTE COUNT” value [3] of the same compound?
Its value is 5.36 x10E6/uL.

What about the HEMATOCRIT [3] of the same compound?
The HEMATOCRIT was 32.73%.

What about the HEMOGLOBIN [3] of the same compound?
The HEMOGLOBIN was 13 G/DL.

What about the “LEUKOCYTE COUNT” value [3] of the same compound?
Its value is 10.57 x10E3/uL.

What about the LYMPHOCYTE [3] of the same compound?
The LYMPHOCYTE was 87.67%.

What about the “MEAN CORPUSCULAR HEMOGLOBIN” value [3] of the same compound?
The value was 24.3 pg.

And the “MEAN CORPUSCULAR HEMOGLOBIN CONCENTRATION” value [3]?
Its value is 39.73 G/DL.

What about the “MEAN CORPUSCULAR VOLUME” value [3] of the same compound?
The value was 61.17 fL.

And the MONOCYTE [3]?
Its MONOCYTE is 0.33%.

And the NEUTROPHIL [3]?
The NEUTROPHIL was 12%.

And the “NUCLEATED RED BLOOD CELLS” value [3]?
Its value is 0 /100WBC.

What about the “PLATELET COUNT” value [3] of the same compound?
Its value is 1056.33 x10E3/uL.

And the “ALANINE AMINOTRANSFERASE” value [3]?
Its value is 64.33 u/L.

What about the ALBUMIN [3] of the same compound?
The ALBUMIN was 3.87 G/DL.

What about the “ALKALINE PHOSPHATASE” value [3] of the same compound?
Its value is 326.33 u/L.

And the “ASPARTATE AMINOTRANSFERASE” value [3]?
The value was 98.67 u/L.

And the “BLOOD UREA NITROGEN” value [3]?
Its value is 14.33 mg/dL.

And the “CARBON DIOXIDE” value [3]?
The value was 30 mmol/L.

And the CHLORIDE [3]?
The CHLORIDE was 99 MEQ/L.

What about the CHOLESTEROL [3] of the same compound?
The CHOLESTEROL was 78.33 mg/dL.

And the “CREATINE PHOSPHOKINASE” value [3]?
The value was 446 u/L.

What about the CREATININE [3] of the same compound?
The CREATININE was 0.19 mg/dL.

What about the GLUCOSE [3] of the same compound?
Its GLUCOSE is 155 mg/dL.

What about the “LACTATE DEHYDROGENASE” value [3] of the same compound?
The value was 214 u/L.

What about the LIPASE [3] of the same compound?
The LIPASE was 10.67 u/L.

What about the PHOSPHORUS [3] of the same compound?
Its PHOSPHORUS is 11.53 mg/dL.

What about the POTASSIUM [3] of the same compound?
Its POTASSIUM is 5.92 MEQ/L.

And the SODIUM [3]?
Its SODIUM is 142 MEQ/L.

And the “TOTAL BILIRUBIN” value [3]?
Its value is 0.17 mg/dL.

And the “TOTAL PROTEIN” value [3]?
Its value is 5.57 G/DL.
